From US20070197432A1, “Peptides for preventing, diagnosing and treating animal and/or human leptospirosis” (priority 2002, published 2007)
No end group written: not given here.

Assays:
PP peptide = experiment: Immunization of rabbit with noncoupled PP peptide, anti-PP IgG ELISA; assay type: in vivo
Protocol: To test the immunogenicity of the PP peptide alone, immunization with the PP peptide in the rabbit model was carried out, with incomplete Freund's adjuvant being added to each injection.
More precisely, two injections of 400 μg of PP peptide with incomplete Freund's adjuvant (v/v) were administered in a total volume of 2 ml.
The two injections were administered subcutaneously, two weeks apart. The rabbit serum was recovered two weeks after the second injection. The anti-PP antibodies were titered on this serum.
The anti-PP antibodies were titered in the rabbit by the ELISA technique described above, with a biotinylated anti-rabbit antiglobulin (BioAtlantic) at 1/3000 and peroxidase-coupled streptavidin as visualizing agent (RPN1231, Amersham pharmacia biotech)
The results of the anti-PP IgG antibody response, expressed as corrected OD (OD at D28, therefore after the second immunization, minus the OD at D0), of the immunization trial with the PP peptide are given in FIG. 3.

[1] = tested on: Leptospira interrogans sl serovar canicola; experiment: Trial 1: gerbils immunized with PP-KLH, 10^−2.5 canicola challenge; assay type: in vivo, gerbil; details: Experiment 1, survival
Protocol: An immunization/challenge protocol was carried out in order to evaluate the protection that can be provided by the PP peptide (SEQ ID No. 1) coupled to the KLH protein.
This construct is administered subcutaneously without adjuvant, with PBS as a negative control (batch 2).
Batch 1: 10 gerbils, 2 injections of 30 μg of PP-KLH in 300 μl, subcutaneously.
Batch 2: 10 gerbils, 2 injections of PBS in 300 μl.
The two injections in a volume of 300 μl were administered subcutaneously, two weeks apart. A challenge by intraperitoneal injection of 0.5 ml of a canicola culture with a titer of 90 to 100 TU (turbidimetry) diluted to 10^−2.5 was administered two weeks after the second injection. • Antigenic response: Monitoring by ELISA of the immune response of the gerbils against the PP peptide

[2] = tested on: Leptospira interrogans sl serovar canicola; experiment: Trial 2: gerbils immunized with PP-KLH or PP, 10^−2 canicola challenge; assay type: in vivo, gerbil; parameters: Mortality rate / Survival rate: unit not given here
Protocol: An immunization/challenge trial was carried out in order to evaluate the protection that can be provided by the PP peptide (SEQ ID No. 1) coupled or not coupled to the KLH protein.
This construct is administered subcutaneously without adjuvant, and PBS is administered by the same route as the negative control (batch 3). • Batch 1: 12 gerbils, 2 injections of 30 μg of PP-KLH in 300 μl. • Batch 2: 12 gerbils, 2 injections of 30 μg of PP in 300 μl. • Batch 3: 15 gerbils, 2 injections of PBS in 300 A1.
The two injections in a volume of 300 μl were administered subcutaneously, two weeks apart. A challenge by intraperitoneal injection of 0.5 ml of a serovar canicola leptospiral culture with a titer of 90 to 100 TU (turbidimetry) diluted to 10^−2 was administered three weeks after the second injection.

“KAKPVQKLDDDDDGDDTYKEERHNK [PP peptide, 25 amino acid peptide, fragment aa153-aa177 of the PPL protein of Leptospira interrogans]” was tested, and the “serum dilution at which response against the PP peptide can still be detected” value (PP peptide; 2 s.c. injections of 400 μg with incomplete Freund's adjuvant, D28) was ≥ 102 400, the immunogenicity (PP peptide; peptide alone) was “very immunogenic” and the “p, log-rank test versus control” value [1] was less than 0.07. For the same sequence, the Mortality rate ([2]; 10^−2 canicola challenge) was 33.3, the Survival rate ([2]; 10^−2 canicola challenge) was 66.7 and the “mortality in the group (dead/number)” value ([2]; 10^−2 canicola challenge) was 4/12. The gerbils at challenge ([2]; 10^−2 canicola challenge, D0) was 12, the “mortality of gerbils (dead/number)” value ([2]; 10^−2 canicola challenge, D4) was 0/12 and the “mortality of gerbils (dead/number)” value ([2]; 10^−2 canicola challenge, D5) was 0/12. For the same sequence, the “mortality of gerbils (dead/number)” value ([2]; 10^−2 canicola challenge, D6) was 0/12, the “mortality of gerbils (dead/number)” value ([2]; 10^−2 canicola challenge, D7) was 0/12 and the “mortality of gerbils (dead/number)” value ([2]; 10^−2 canicola challenge, D8) was 2/12. For the same sequence, the “mortality of gerbils (dead/number)” value ([2]; 10^−2 canicola challenge, D9) was 2/10, the “mortality of gerbils (dead/number)” value ([2]; 10^−2 canicola challenge, D10) was 0/8 and the “mortality of gerbils (dead/number)” value ([2]; 10^−2 canicola challenge, D11) was 0/8. The “mortality of gerbils (dead/number)” value ([2]; 10^−2 canicola challenge, D12) was 0/8, the “mortality of gerbils (dead/number)” value ([2]; 10^−2 canicola challenge, D13) was 0/8 and the “mortality of gerbils (dead/number)” value ([2]; 10^−2 canicola challenge, D14) was 0/8. The “mortality of gerbils (dead/number)” value ([2]; 10^−2 canicola challenge, D15) was 0/8, the “mortality of gerbils (dead/number)” value ([2]; 10^−2 canicola challenge, D16) was 0/8 and the “mortality of gerbils (dead/number)” value ([2]; 10^−2 canicola challenge, D17) was 0/8. The “mortality of gerbils (dead/number)” value ([2]; 10^−2 canicola challenge, D28) was 0/8, the “p, log-rank test versus control” value ([2]; Experiment 2, survival) was less than 0.02 and the “χ^2, log-rank test versus control” value ([2]; Experiment 2, survival) was 5.64. The “p, log-rank test versus control” value ([2]; Experiment 2, survival, listed as PP) was <2.10^−2.
